# US5955495A, “Method of treating diseases of the CNS” (Hoffmann-La Roche Inc., priority 1997, dated 1999)
# Legend:
# 5-HT2C receptor [1] = biological target: T1, 5-HT2C receptor (Rattus norvegicus, UniProt P08909); assay: [3H]-5-HT binding assay (method a), affinity to the 5-HT2C receptor; set-up: expressed in transfected cells; details: Ki from IC50 in nM; for Ki: read-out: Pki (Pki=-log10 Ki), 5-HT2C, Method a (converted)
# T1 sequence (P08909 33-460): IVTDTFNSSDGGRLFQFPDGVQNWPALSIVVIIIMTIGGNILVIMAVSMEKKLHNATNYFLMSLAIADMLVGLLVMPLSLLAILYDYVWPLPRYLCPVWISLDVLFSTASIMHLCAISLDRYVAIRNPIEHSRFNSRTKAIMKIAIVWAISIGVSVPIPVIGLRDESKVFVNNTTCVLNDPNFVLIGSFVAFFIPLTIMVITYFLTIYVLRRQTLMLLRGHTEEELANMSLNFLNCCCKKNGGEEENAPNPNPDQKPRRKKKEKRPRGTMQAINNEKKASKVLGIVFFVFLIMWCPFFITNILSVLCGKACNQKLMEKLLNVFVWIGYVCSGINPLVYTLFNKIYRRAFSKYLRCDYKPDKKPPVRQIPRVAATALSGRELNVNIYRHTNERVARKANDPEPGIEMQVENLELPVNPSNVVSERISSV
# Method: (§1) The binding of compounds of formula I in accordance with the invention to selected serotonin […] was determined in vitro by standard methods. The preparations were investigated in accordance with the tests given hereinafter:
# a) Affinity to the 5-HT2C receptor in accordance with the [3H]-5-HT binding assay according to the method of S.J. Peroutka et al., Brain Research 584, 191-196 (1992).
# (§2) The Pki values (Pki=-log10 Ki) of the test substances are given. The Ki value is defined by the following formula: [formula] with the IC50 values being those concentrations of test compounds in nM at which 50% of the receptor-bonded ligands are displaced. [L] is the ligand concentration and the KD value is the dissocation constant of the ligand.
# 5-HT2A receptor = biological target: T2, 5-HT2A receptor (Homo sapiens, UniProt P28223); assay: [3H]-DOB binding assay (method b), affinity to the 5-HT2A receptor; details: Ki from IC50 in nM; for Ki: read-out: Pki (Pki=-log10 Ki), 5-HT2A, Method b (converted)
# T2 construct: expressed in transfected cells
# T2 sequence (P28223 whole entry): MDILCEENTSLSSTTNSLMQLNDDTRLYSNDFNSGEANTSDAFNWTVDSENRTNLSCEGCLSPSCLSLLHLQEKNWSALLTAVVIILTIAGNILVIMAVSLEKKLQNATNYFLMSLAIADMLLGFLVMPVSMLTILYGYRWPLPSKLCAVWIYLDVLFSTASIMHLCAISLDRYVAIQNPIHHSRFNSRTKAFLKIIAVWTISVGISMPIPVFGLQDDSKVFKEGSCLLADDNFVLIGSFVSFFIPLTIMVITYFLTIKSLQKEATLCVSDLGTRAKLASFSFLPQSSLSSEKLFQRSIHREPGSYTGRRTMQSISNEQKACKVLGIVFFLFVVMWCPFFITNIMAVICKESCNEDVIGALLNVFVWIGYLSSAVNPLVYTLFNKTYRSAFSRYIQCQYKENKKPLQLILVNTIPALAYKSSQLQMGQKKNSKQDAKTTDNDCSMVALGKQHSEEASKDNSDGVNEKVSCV
# Method: as §1
# b) Affinity to the 5-HT2A receptor in accordance with the [3H]- DOB binding assay according to the method of T. Branchek et. al., Molecular Pharmacology 38, 604-609 (1990).
# as §2
# 5-HT2C receptor [2] = biological target: T1, 5-HT2C receptor; assay: Penile erection (rats); format: in vivo; set-up: following the administration of the test substance to the animals; from tissue; host or cells: whole living rat (in vivo); details: po, 0.75 h, p.o., erections within 45 minutes following administration, read-out: ID50 (mg/kg) (p.o.), penile erection
# Method: It has been shown that penile erection is dependent on the stimulation of 5HT2C receptors (see Berendsen & Broekkamp, Eur. J. Pharm., 135, 179-184 (1987).
# The number of penile erections was determined within 45 minutes following the administration of the test substance to the animals. The ED50 is the dosage which causes 50% of these erections.
Compound,Ki (5-HT2C receptor [1]),Ki (5-HT2A receptor),ED50 (5-HT2C receptor [2]),"Pki (Pki=-log10 Ki), 5-HT2C, Method a (5-HT2C receptor [1])","Pki (Pki=-log10 Ki), 5-HT2A, Method b (5-HT2A receptor)"
"NC(=NO)c1cc2cc(F)c(F)cc2o1 [Example 13, 5,6-Difluorobenzofuran-2-carboxamidoxime]",> 10000 nM,> 10000 nM,–,–,–
N=C(N)c1cc2cccc(-c3ccccc3)c2o1 [Ph H H H H],251 nM,158 nM,–,–,–
N=C(N)c1cc2cc(Cl)cc(Br)c2o1 [Br H Cl H H],5010 nM,316 nM,–,–,–
N=C(N)c1cc2cccc(Cl)c2o1 [Cl H H H H],158 nM,3980 nM,–,–,–
CC(C)CCOc1cccc2cc(C(=N)N)oc12 [Oi-Pent H H H H],501 nM,158 nM,–,–,–
N=C(N)c1cc2cccc(OC3CCCC3)c2o1 [O-Cyclo-pent H H H H],501 nM,251 nM,–,–,–
"N=C(N)c1cc2cc(F)c(F)cc2o1 [Example 1, 5,6-Difluorobenzofuran-2-carboxamidine]",158 nM,2000 nM,6 mg/kg,–,–
"NC(=NO)c1cc2cc(F)ccc2o1 [Example 15, 5-Fluorobenzofuran-2-carboxamidoxime]",4270 nM,> 10000 nM,–,–,–
"CCOc1cccc2cc(C(=N)N)oc12 [Example 4, 7-Ethoxybenzofuran-2-carboxamidine]",50.1 nM,> 10000 nM,–,–,–
"N=C(N)c1cc2ccc(F)cc2o1 [Example 6, 6-Fluorobenzofuran-2-carboxamidine]",158 nM,2510 nM,3 mg/kg,–,–
"CCOc1cccc2oc(C(=N)N)cc12 [Example 2, 4-Ethoxybenzofuran-2-carboxamidine]",158 nM,> 10000 nM,–,–,–
COc1ccc(C)c2cc(C(=N)N)oc12 [OMe H H Me H],100 nM,2510 nM,–,–,–
"N=C(N)c1cc2cc(F)ccc2o1 [Example 5, 5-Fluorobenzofuran-2-carboxamidine]",158 nM,2000 nM,–,–,–
N=C(N)c1cc2cccc(O)c2o1 [CH H H H H],–,–,–,6.2,< 5
COc1ccc2cc(C(=N)N)oc2c1 [H OMe H H H],631 nM,6310 nM,–,–,–
CCCOc1cccc2cc(C(=N)N)oc12 [OPr H H H H],158 nM,> 10000 nM,–,–,–
CC(C)COc1cccc2cc(C(=N)N)oc12 [Oi-Bu H H H H],2000 nM,1000 nM,–,–,–
N=C(N)c1cc2cc(Cl)cc(Cl)c2o1 [Cl H Cl H H],2510 nM,631 nM,–,–,–
"CCOCc1cccc2cc(C(N)=NO)oc12 [Example 17, 7-Ethoxymethylbenzofuran-2-carboxamidoxime]",> 10000 nM,> 10000 nM,–,–,–
N=C(N)c1cc2cccc(Br)c2o1 [Br H H H H],126 nM,1580 nM,–,–,–
COCc1cccc2cc(C(=N)N)oc12 [CH2 --O-Me H H H H],158 nM,3160 nM,–,–,–
COc1cccc2oc(C(=N)N)cc12 [H H H OMe H],158 nM,2000 nM,–,–,–
CCCc1ccc(F)c2cc(C(=N)N)oc12 [Example 11],7.94 nM,501 nM,–,–,–
"N=C(N)c1cc2c(F)cccc2o1 [Example 9, 4-Fluoro-benzofuran-2-carboxamidine]",39.8 nM,2000 nM,2.9 mg/kg,–,–
CC(C)Oc1cccc2cc(C(=N)N)oc12 [Oi-Pr H H H H],200 nM,1000 nM,–,–,–
Cc1ccc2cc(C(=N)N)oc2c1 [H Me H H H],1000 nM,> 10000 nM,–,–,–

Compound,Ki (5-HT2C receptor [1]),Ki (5-HT2A receptor),ED50 (5-HT2C receptor [2]),"Pki (Pki=-log10 Ki), 5-HT2C, Method a (5-HT2C receptor [1])","Pki (Pki=-log10 Ki), 5-HT2A, Method b (5-HT2A receptor)"
CC(C)OCc1cccc2cc(C(=N)N)oc12 [CH2 --O-iPr H H H H],398 nM,2000 nM,5.1 mg/kg,–,–
CSc1cccc2cc(C(=N)N)oc12 [SMe H H H H],79.4 nM,1000 nM,–,–,–
COc1ccc2oc(C(=N)N)cc2c1 [H H OMe H H],2510 nM,> 10000 nM,–,–,–
Cc1cccc2cc(C(=N)N)oc12 [Me H H H H],398 nM,2510 nM,–,–,–
"NC(=NO)c1cc2ccc(F)cc2o1 [Example 16, 6-Fluorobenzofuran-2-carboxamidoxime]",4370 nM,> 10000 nM,1.6 mg/kg,–,–
COc1cc(-c2ccccc2)cc2cc(C(=N)N)oc12 [OMe H Ph H H],1580 nM,158 nM,–,–,–
"CCOc1cccc2cc(C(N)=NO)oc12 [Example 14, 7-Ethoxybenzofuran-2-carboxamidoxime]",5500 nM,> 10000 nM,–,–,–
N=C(N)c1cc2cc(Br)cc(Br)c2o1 [Br H Br H H],2000 nM,316 nM,–,–,–
"CCCc1c(F)ccc2cc(C(=N)N)oc12 [Example 8, 6-Fluoro-7-propylbenzofuran-2-carboxamidine]",20 nM,158 nM,–,–,–
"N=C(N)c1cc2ccccc2o1 [H H H H H, benzofuran-2-carboxamidine]",79.4 nM,5010 nM,5 mg/kg,–,–
CSCc1cccc2cc(C(=N)N)oc12 [CH2 --S-Me H H H H],251 nM,1000 nM,–,–,–
N=C(N)c1cc2ccc3c(c2o1)OCC3 [--O--CH2 --CH2 -- H H H],398 nM,3160 nM,–,–,–
N=C(N)c1cc2cccc(OCc3ccccc3)c2o1 [OBn H H H H],63.1 nM,126 nM,–,–,–
CCCc1cccc2cc(C(=N)N)oc12 [n-Pr H H H H],79.4 nM,1000 nM,–,–,–
N=C(N)c1cc2cccc(OC3CCCCC3)c2o1 [O-Cyclo-hex H H H H],631 nM,158 nM,–,–,–
COc1cc(Br)cc2cc(C(=N)N)oc12 [OMe H Br H H],126 nM,2510 nM,–,–,–
"NC(=NO)c1cc2c(F)cccc2o1 [Example 18, 4-Fluorobenzofuran-2-carboxamidoxime]",79.4 nM,2510 nM,–,–,–
"CCOCc1cccc2cc(C(=N)N)oc12 [Example 7, 7-Ethoxymethylbenzofuran-2-carboxamidine]",100 nM,2000 nM,–,–,–
"COc1cccc2cc(C(=N)N)oc12 [Example 3, 7-Methoxybenzofuran-2-carboxamidine]",158 nM,> 10000 nM,–,–,–
"N=C(N)c1cc2c(F)ccc(Br)c2o1 [Example 12, 7-Bromo-4-fluorobenzofuran-2-carboxamidine]",> 10000 nM,> 10000 nM,–,–,–
N=C(N)c1cc2ccc(Cl)cc2o1 [H Cl H H H],1260 nM,5010 nM,–,–,–
N=C(N)c1cc2cccc(F)c2o1 [F H H H H],794 nM,5010 nM,–,–,–
N=C(N)c1cc2cc(Cl)ccc2o1 [H H Cl H H],1580 nM,1580 nM,–,–,–
"N=C(N)c1cc2c(F)cc(F)cc2o1 [Example 10, 4.6-Difluoro-benzofuran-2-carboxamidine]",7.94 nM,631 nM,–,–,–
CC(C)c1cccc2cc(C(=N)N)oc12 [i-Prop H H H H],63.1 nM,794 nM,–,–,–
"NC(=NO)c1cc2ccccc2o1 [H H H H CH, benzofuran-2-carboxamidoxime]",> 10000 nM,> 10000 nM,2 mg/kg,–,–
